From patent publication US5089520A, “Method of inhibiting virus” (priority 1990, dated 1992)
Like-named read-outs stand apart in the source and are kept apart here.

Columns and labels:
HIV [1] = assay: In vitro HIV replication / cytopathic effect assay, HIV-infected T-cells scored 0 to 4+ (Example 13, Table I); type: cell-based; design: key to T-cells HIV-infected (score): 0: complete CPE; ±: most cells dead; 1+: about 1/4 of cells alive; 2+: about 1/2 of cells alive; 3+: about 3/4 of cells alive; 4+: all cells appear alive; conditions: for HIV inhibition score (inactive, scored as zero): above test protocol (Example 13), concentration not given
Procedure: (§1) After a suitable period of incubation, the cultures are scored for the presence of so-called syncytial cells (giant cells). Typical examples of such a test for the evaluation of inhibitors of HIV have been disclosed by Fung et al., Bio/Technology 5, 940-946 (1987); Tyms et al., Lancet, Oct. 31, 1987, pp. 1025-1026; Gruters et al., Nature 330, 74-77 (1987); and Walker et al., Proc Natl. Acad. Sci. USA 84, 8120-8124 (1987).
(§2) In the present case, a human leukemic T-cell line was used which is described by Karpas, Leuk. Res. 1, 35-49 (1977). These cells were seeded into microtiter wells at a concentration of 5×10^3 cells per 0.2 ml of culture medium in each well. RPMI-1640 supplemented with 10% fetal calf serum was used as the culture medium. Each of the test compounds was added to either 4 or 6 wells of the microtiter plate. Two or three of the wells were infected with about 10^3 HIV-1 particles per well and two or three other wells were similarly infected with HV-2 particles. During the following 3 weeks, with a twice weekly change of medium containing the corresponding test compounds, the infected cells were monitored for the appearance of syncytial formations (giant cells) and eventual cytopathic effect (CPE). The non-infected cells were monitored for the possible cytotoxic effect of the test compounds. Likewise, the rate of growth was estimated in relation to growth of the control cells. The cultures were scored on a scale from 0 to 4+ by microscopic examination on the following basis:
(§3) 1+=about 1/4 of cells alive
(§4) 2+=about 1/2 of cells alive
(§5) 3+=about 3/4 of cells alive
(§6) 4+=all cells appear alive

in vitro = type: cell-based, human; design: key to T-cells Control (score): 0: complete CPE; ±: most cells dead; 1+: about 1/4 of cells alive; 2+: about 1/2 of cells alive; 3+: about 3/4 of cells alive; 4+: all cells appear alive; conditions: human, leukemic t-cell line; same test protocol as Table I; read-out: toxic at (concentration)
Procedure: as §1, §2, §3, §4, §5, §6

HIV [2] = conditions: literature, cited from earlier work; for inhibition of HIV / cytopathic effect (in words): in vitro
HIV [3] = assay: Anti-HIV activity, CPE reduction in HIV infected T-lymphocytes (Example 14, Table II); type: cell-based; conditions: Human immunodeficiency virus 1, T-lymphocyte; for activity at 100 µg/mL: dosage 0.1 mg/ml; for activity at 130 µg/mL: dosage 0.13 mg/ml
Procedure: (§7) Further testing of compounds 1 to 12 for inhibition of HIV replication was carried out to confirm the results of Example 13. To discriminate between specific anti-HIV activity and cytotoxicity, the effects of these compounds on HIV infected and non-infected T-lymphocytes were assessed in parallel. Using the T-cell line and cell free suspensions of HIV prepared from infected cultures, as in Example 13, the concentration of infectious particles (TCID, tissue culture infectious dose) was estimated using an end-point titration where the number of infectious HIV particles in each preparation was determined by the highest dilution which contained infectious HIV, as detected by syncytial formation, cytotoxicity and HIV antigen synthesis after 10 days of culture with 10^4 T-45 cells. Stock solutions of all compounds were prepared by dissolving each compound at a concentration of 1 mg/ml in growth medium. These solutions were filtered and sterilised (0.22 μm). Initially, each compound was tested at concentrations of 0.1 mg/ml and 0.5 mg/ml.
(§8) The following Table II sets forth the cytotoxic activity (% cell death) and the anti-HIV activity (% cytopathic effect, CPE, reduction), for these compounds.

[4] = tested on: human leukemic T-cell line; assay: in vitro; type: cell-based; design: key to T-cells Control (score): 0: complete CPE; ±: most cells dead; 1+: about 1/4 of cells alive; 2+: about 1/2 of cells alive; 3+: about 3/4 of cells alive; 4+: all cells appear alive; conditions: control cells, 3 weeks
Procedure: as §1, §2, §3, §4, §5, §6

[5] = Cytotoxic activity in non-infected T-lymphocytes (Example 14, Table II); type: cell-based; conditions: human, read-out: Cytotoxic Activity (% cell death)
Procedure: as §7, §8

α-glucosidase I = conditions: literature; cited from earlier work
HIV virons = conditions: literature; cited from earlier work
mannosidase I = conditions: literature; cited from earlier work
glycosidase = conditions: literature; cited from earlier work
α-glycosidase = conditions: literature; cited from earlier work
[6] = compound concentration 0.1 mg/ml
[7] = compound concentration 0.3 mg/ml
[8] = compound concentration 0.13 mg/ml

## OC[C@@H]1[C@@H](O)[C@@H](O)CN1Cc1ccccc1 [1,4-dideoxy-1,4-benzylimino-D-ribitol, 1,4-Dideoxy-1,4-benzylimino-D-ribitol]
HIV [1]
  HIV inhibition score (inactive, scored as zero): zero

## C[C@@H]1NC[C@@H](O)[C@H](O)[C@@H]1O [1,5-dideoxy-1,5-imino-L-fucitol, 1,5-Dideoxy-1,5-imino-L-fucitol]
HIV [1]
  HIV inhibition score (inactive, scored as zero): zero

## Cc1cn([C@H]2C[C@H](N=[N+]=[N-])[C@@H](CO)O2)c(=O)[nH]c1=O [AZT, 3'-azido-3'-deoxythymidine, reference compound]
In vitro
  MCC: 0.01 µg/mL
HIV [2]
  inhibition of HIV / cytopathic effect (in words): shown to inhibit replication of the virus in vitro

## CN1[C@H](CO)[C@@H](O)[C@H](O)[C@H]1CO [Compound 1, N-Methyl derivative of dihydroxymethyldihydroxypyrrolidine]
HIV [3]
  activity at 100 µg/mL: 25%
[4]; [6]
  T-cells Control (score): 4+
[5]; dosage 0.1 mg/ml
  cytotoxicity: 0%

## OC[C@@H]1NC[C@H](O)[C@H]1O [Compound 2, 1,4-Dideoxy-1,4-imino-L-arabinitol]
HIV [1]; compound concentration 0.3 mg/ml, 3 weeks, HIV-1 and HIV-2
  T-cells HIV-infected (score): 4+
HIV [3]
  activity at 100 µg/mL: 50%
HIV [3]; dosage 0.5 mg/ml
  activity at 500 µg/mL: 100%
[4]; [7]
  T-cells Control (score): 4+
[5]; dosage 0.1 mg/ml
  cytotoxicity: 0%
HIV [2]
  inhibition of HIV / cytopathic effect (in words): strong HIV inhibitory activity

## OC[C@@H]1NC[C@@H](O)[C@H]1O [Compound 3, 1,4-Dideoxy-1,4-imino-L-ribitol]
HIV [3]
  activity at 130 µg/mL: 25%
[4]; [8]
  T-cells Control (score): 4+
[5]; dosage 0.13 mg/ml
  cytotoxicity: 0%

## OC[C@H]1NC[C@H](O)[C@@H]1O [Compound 4, 1,4-Dideoxy-1,4-imino-D-ribitol]
HIV [3]
  activity at 130 µg/mL: 50%
[4]; [8]
  T-cells Control (score): 4+
[5]; dosage 0.13 mg/ml
  cytotoxicity: 0%

## CN1C[C@H](O)[C@@H](O)[C@@H]1CO [Compound 5]
HIV [3]
  activity at 100 µg/mL: 25%
[4]; [6]
  T-cells Control (score): 4+
[5]; dosage 0.1 mg/ml
  cytotoxicity: 0%

## CN1C[C@H](O)[C@H](O)[C@H]1CO [Compound 6]
HIV [3]
  activity at 100 µg/mL: 25%
[4]; [6]
  T-cells Control (score): 4+
[5]; dosage 0.1 mg/ml
  cytotoxicity: 0%

## OC[C@H]1[C@H](O)[C@H](O)CN1Cc1ccccc1 [Compound 7, 1,4-dideoxy-1,4-benzylimino-L-ribitol]
HIV [3]
  activity at 100 µg/mL: 25%
[4]; [6]
  T-cells Control (score): 4+
[5]; dosage 0.1 mg/ml
  cytotoxicity: 0%

## OC[C@@H](O)[C@@H]1NC[C@@H](O)[C@H]1O [Compound 8, 1,4-Dideoxy-1,4-imino-D-talitol]
HIV [3]; dosage 0.16 mg/ml
  activity at 160 µg/mL: 25%
[4]; compound concentration 0.16 mg/ml
  T-cells Control (score): 4+
[5]; dosage 0.16 mg/ml
  cytotoxicity: 0%

## CN1C[C@@H](O)[C@@H](O)[C@H](O)[C@H]1CO [Compound 9, N-Methyl derivative of deoxymannojirimycin]
HIV [3]; dosage 0.3 mg/ml
  activity at 300 µg/mL: 25%
[4]; [7]
  T-cells Control (score): 4+
[5]; dosage 0.3 mg/ml
  cytotoxicity: 0%

## C[C@@H]1NC(=O)[C@@H](O)[C@H](O)[C@@H]1O [Compound 10, 1,5-dideoxy-1,5-imino-L-fuconolactam]
HIV [3]
  activity at 100 µg/mL: 50%
[4]; [6]
  T-cells Control (score): 4+
[5]; dosage 0.1 mg/ml
  cytotoxicity: 25%

## C[C@H]1[C@@H](O)[C@@H](O)[C@H](O)CN1C [Compound 11, 1,5-Dideoxy-1,5-imino-[N-methyl]-L-fucitol]
HIV [3]
  activity at 100 µg/mL: 25%
[4]; [6]
  T-cells Control (score): 4+
[5]; dosage 0.1 mg/ml
  cytotoxicity: 0%

## COC(=O)CCCCCN1C[C@@H](O)[C@H](O)[C@H](O)[C@@H]1C [Compound 12, 1,5-Dideoxy-1,5-imino-[N-ω-methyl caproate]-L-fucitol]
HIV [3]
  activity at 100 µg/mL: 75%
HIV [3]; dosage 0.25 mg/ml
  activity at 250 µg/mL: 90%
[4]; compound concentration 0.03 mg/ml
  T-cells Control (score): 4+
[5]; dosage 0.1 mg/ml
  cytotoxicity: 0%

## OC[C@H]1NC[C@@H](O)[C@@H]1O [D-enantiomer]
HIV [2]
  inhibition of HIV / cytopathic effect (in words): very little effect on HIV replication

## O[C@@H]1[C@@H](O)[C@@H](O)CN2CC[C@H](O)[C@@H]12 [L-1,6-diepicastanospermine]
HIV [2]
  inhibition of HIV / cytopathic effect (in words): neither the epimer L-1,6-diepicastanospermine nor the stereoisomer of castanospermine, L-6-epicastanospermine, were found to be inhibitory

## O[C@@H]1[C@@H](O)[C@@H](O)CN2CC[C@@H](O)[C@@H]12 [L-6-epicastanospermine]
HIV [2]
  inhibition of HIV / cytopathic effect (in words): neither the epimer L-1,6-diepicastanospermine nor the stereoisomer of castanospermine, L-6-epicastanospermine, were found to be inhibitory

## OC[C@@H]1[C@@H](O)[C@H](O)[C@@H](O)CN1Cc1ccccc1 [N-benzyl derivative]
HIV [2]
  inhibition of HIV / cytopathic effect (in words): Neither the azofuranose analog of glucose nor the N-benzyl derivative were found to have an effect on CPE

## CN1C[C@H](O)[C@@H](O)[C@H](O)[C@H]1CO [N-methyl derivative of deoxynojirimycin]
α-glucosidase I
  glucosidase I inhibitory activity (in words): gluosidase I inhibitory activity
HIV [2]
  inhibition of HIV / cytopathic effect (in words): having activity against HIV

## O[C@H]1[C@H](O)[C@@H](O)CN2CC[C@H](O)[C@H]12 [castanospermine]
HIV virons
  effect on glycosylation of HIV virons and entry into target cells (in words): interfere with normal glycosylation of HIV virons, thereby altering the envelope glycoprotein and preventing entry of HIV into target cells
α-glucosidase I
  glucosidase I inhibitory activity (in words): α-glucosidase I inhibitor
HIV [2]
  inhibition of HIV / cytopathic effect (in words): inhibition of the cytopathic effect (CPE)
  effect on HIV / virion infectivity (in words): only a modest reduction in virion infectivity

## OC[C@H]1NC[C@@H](O)[C@@H](O)[C@@H]1O [deoxymannojirimycin (DMJ), 1,5-dideoxy-1,5-imino-D-mannitol]
Mannosidase I
  mannosidase I inhibition (in words): mannosidase I inhibitor
HIV [2]
  effect on HIV / virion infectivity (in words): absence of effect

## OC[C@H]1NC[C@H](O)[C@@H](O)[C@@H]1O [deoxynojirimycin (DNJ), deoxynojirimycin]
glycosidase
  glycosidase inhibition (in words): glycosidase inhibitor
HIV [2]
  effect on HIV / virion infectivity (in words): positive effect

## OC[C@H]1NCC[C@@H](O)[C@@H]1O [fagomine]
α-glycosidase
  α-glycosidase inhibitory activity (in words): α-glycosidase inhibitory activity
HIV [2]
  inhibition of HIV / cytopathic effect (in words): no HIV inhibition was observed
